Laboratory results: patent US20110028546A1, “NOVEL ANTIMICROBIAL FORMULATIONS INCORPORATING ALKYL ESTERS OF FATTY ACIDS AND NANOEMULSIONS THEREOF” (priority 2006, published 2011)

How the values were obtained:
Experiment in all cases: In vitro antimicrobial efficacy using time kill procedure (ASTM E 2315-03)
Type in all cases: cell-based
Details in all cases: 1.0% concentration
E. Coli—ATCC No. 8739 = tested on: E. Coli—ATCC No. 8739
Experimental: (§1) The following target organisms were included in the tests: E. Coli—ATCC No. 8739; Staphylococcus Aureus—ATCC No. 6538 and Candida Albicans—ATCC No. 10231. The initial inoculum counts for all the organisms were between 10^6 and 10^8 CFUs/ml.
(§2) The testing procedure was according to ASTM E 2315-03 standards and protocols. The exposure times were 2 minutes and 10 minutes. Each test concentration was tested in duplicate and each sample was plated in duplicate.
(§3) The log reduction expresses the efficacy of the antimicrobial formulation against the target organism. The final mean number of Colony Forming Units (CFUs) per ml of test solution at a given exposure time log 10 is calculated as follows:
(§4) Mean No. of CFUs/ml ═Na=C/(n×D×V)
(§5) • C=Total number of colonies counted on all plates • V=Sample volume used to prepare the pour plate (1 ml) • D=Dilution factor (0.01) • n=Number of plates taken into account • a=exposure time
(§6) The mean log reduction is calculated using the equation: […]
(§7) Mean log reduction log 10(NI×0.01)−log 10 (Na)
(§8) Where NI is the initial organism count

[1] = tested on: Candida Albicans—ATCC No. 10231
Experimental: as §1, §2, §3, §4, §5, §6, §7, §8

[2] = tested on: Staphylococcus Aureus—ATCC No. 6538
Experimental: as §1, §2, §3, §4, §5, §6, §7, §8

SMILES: CC(O)C(=O)O (stereo not drawn) [LA 88, Lactic Acid 88%]
- 2 minute log reduction, E. Coli (E. Coli—ATCC No. 8739; 2 minutes exposure): 2.36
- 10 minute log reduction, E. Coli (E. Coli—ATCC No. 8739; 10 minutes exposure): 2.41
- 2 minute log reduction, Candida Albicans ([1]; 2 minutes exposure): 2.69
- 10 minute log reduction, Candida Albicans ([1]; 10 minutes exposure): 2.79
- 2 minute log reduction, S. Aureus ([2]; 2 minutes exposure): <2.0
- 10 minute log reduction, S. Aureus ([2]; 10 minutes exposure): <2.0
